{"source": "paper PMC6297231", "about": "(Nature Communications, 2018)", "key": {"[1]": {"tested_on": "ME1", "assay": "Caspase-3/7 activation assay", "format": "cell-based", "settings": "ME-1, 6 h"}, "[2]": {"tested_on": "Eμ-Myc lymphoma cells stably expressing human Bfl-1/A1", "assay": "Apoptosis induction in Eμ-Myc lymphoma cells", "settings": "overexpression of Bfl-1/A1, 24 h"}, "[3]": {"tested_on": "HL60", "assay": "Cell viability assay", "format": "cell-based", "settings": "Homo sapiens, HL-60, 24 h; HL60 (AML); read-out: AZD5991 24h GI50"}, "[4]": {"tested_on": "ARH77", "assay": "Cell viability assay", "format": "cell-based", "settings": "Homo sapiens, ARH-77, 24 h; ARH77 (MM); read-out: AZD5991 24h GI50"}, "[5]": {"tested_on": "MDAMB231", "assay": "Cell viability assay", "format": "cell-based", "settings": "Homo sapiens, MDA-MB-231, 24 h; MDAMB231 (Breast); read-out: AZD5991 24h GI50"}, "[6]": {"tested_on": "MV411", "assay": "Cell viability assay", "format": "cell-based", "settings": "Homo sapiens, MV4-11, 24 h; MV411 (AML); read-out: AZD5991 24h GI50"}, "[7]": {"tested_on": "MAVER1", "assay": "Cell viability assay", "format": "cell-based", "settings": "Homo sapiens, 24 h; MAVER1 (NHL); read-out: AZD5991 24h GI50"}, "[8]": {"tested_on": "MONOMAC6", "assay": "Cell viability assay", "format": "cell-based", "settings": "Homo sapiens, MONO-MAC-6, 24 h; MONOMAC6 (AML); read-out: AZD5991 24h GI50"}, "[9]": {"tested_on": "NB4", "assay": "Cell viability assay", "format": "cell-based", "settings": "Homo sapiens, NB-4, 24 h; NB4 (AML); read-out: AZD5991 24h GI50"}, "[10]": {"tested_on": "DLD1", "assay": "Cell viability assay", "format": "cell-based", "settings": "Homo sapiens, DLD-1, 24 h; DLD1 (GI); read-out: AZD5991 24h GI50"}, "[11]": {"tested_on": "MOLP-8 tumors", "assay": "MOLP-8 subcutaneous xenograft efficacy", "format": "in vivo", "method": "Female C.B.-17 SCID mice and female nude rats were purchased from Charles River Laboratories. […]. All xenograft studies were conducted at our Association for the Assessment and Accreditation of Laboratory Animal Care accredited facility in Waltham, MA in accordance with ethical regulations described in the guidelines established by the internal Institutional Animal Care and Use Committee. […]. In mice, drugs were dosed intravenously in a volume of 5 mL kg^-1 except for venetoclax that was dosed orally in a volume of 10 mL kg^-1. […]. Ten million MV4-11 cells were injected subcutaneously in the right flank of rats in a volume of 0.1 mL. Tumor volumes (measured by caliper), animal body weight, and tumor condition were recorded twice weekly for the duration of the study. The tumor volume was calculated using the formula: length (mm) × width (mm)^2[…]. For efficacy studies, growth inhibition from the start of treatment was assessed by comparison of the differences in tumor volume between control and treated groups. Statistical significance was evaluated using non-parametric, unpaired, two-tailed t-test. For efficacy studies, animals were randomized based on tumor volumes using stratified sampling, and enrolled into control and treatment groups. Dosing began when mean tumor size reached ~230 mm^3 in mice and 900 mm^3 in rats. Mice were euthanized once tumor size reached 2000 mm^3. Mice were excluded from the study upon body weight loss > 10% of the body weight at the initiation of the study. For pharmacokinetic analysis, plasma samples were precipitated and diluted with acetonitrile containing internal standard and analyzed by LC–MS/MS versus a calibration curve of known concentrations."}, "[12]": {"tested_on": "Eμ-Myc lymphoma cells stably expressing human Bcl-w", "assay": "Apoptosis induction in Eμ-Myc lymphoma cells", "settings": "overexpression of Bcl-w, 24 h"}, "[13]": {"tested_on": "GIST 430/654", "assay": "Cell viability assay", "format": "cell-based", "settings": "24 h; GIST 430/654 (GI); read-out: AZD5991 24h GI50"}, "[14]": {"tested_on": "Kasumi1", "assay": "Cell viability assay", "format": "cell-based", "settings": "Homo sapiens, Kasumi 1, 24 h; Kasumi1 (AML); read-out: AZD5991 24h GI50"}, "[15]": {"tested_on": "OCILY7", "assay": "Cell viability assay", "format": "cell-based", "settings": "Homo sapiens, OCI-Ly7, 24 h; OCILY7 (NHL); read-out: AZD5991 24h GI50"}, "[16]": {"tested_on": "DOHH2", "assay": "Cell viability assay", "format": "cell-based", "settings": "Homo sapiens, DOHH-2, 24 h; DOHH2 (NHL); read-out: AZD5991 24h GI50"}, "[17]": {"tested_on": "H1703", "assay": "Cell viability assay", "format": "cell-based", "settings": "Homo sapiens, NCI-H1703, 24 h; H1703 (Lung); read-out: AZD5991 24h GI50"}, "[18]": {"tested_on": "H1395", "assay": "Cell viability assay", "format": "cell-based", "settings": "Homo sapiens, NCI-H1395, 24 h; H1395 (Lung); read-out: AZD5991 24h GI50"}, "[19]": {"tested_on": "ML2", "assay": "Cell viability assay", "format": "cell-based", "settings": "Homo sapiens, ML-2, 24 h; ML2 (AML); read-out: AZD5991 24h GI50"}, "[20]": {"tested_on": "OE21", "assay": "Cell viability assay", "format": "cell-based", "settings": "24 h; OE21 (Others); read-out: AZD5991 24h GI50"}, "[21]": {"tested_on": "Sudhl2", "assay": "Cell viability assay", "format": "cell-based", "settings": "Homo sapiens, SU-DHL-2, 24 h; Sudhl2 (NHL); read-out: AZD5991 24h GI50"}, "[22]": {"tested_on": "SNU16", "assay": "Cell viability assay", "format": "cell-based", "settings": "Homo sapiens, SNU-16, 24 h; SNU16 (GI); read-out: AZD5991 24h GI50"}, "[23]": {"tested_on": "OCIAML3", "assay": "Cell viability assay", "format": "cell-based", "settings": "Homo sapiens, OCI-AML-3, 24 h, read-out: AZD5991 24h GI50"}, "[24]": {"tested_on": "GIST T1", "assay": "Cell viability assay", "format": "cell-based", "settings": "Homo sapiens, GISTT1, 24 h; GIST T1 (GI); read-out: AZD5991 24h GI50"}, "[25]": {"settings": "single i.v. dose 60 mg kg^−1, ten days after treatment"}}, "note": "Where two headings read alike, the source gives them in different places."}
{"smiles": "Cc1c2c(nn1C)CSCc1cc(n(C)n1)CSc1cc(c3ccccc3c1)OCCCc1c(C(=O)O)n(C)c3c-2c(Cl)ccc13", "note": "(atropisomer, axis not shown; (Ra)) [(Ra)-7]", "values": [{"measurement": "EC50", "setting": "[1]; read-out: 6h caspase EC50, ME1, single agent", "result": "> 333", "unit": "nM"}, {"measurement": "EC50", "setting": "[1]; read-out: AZD5991 6h EC50, ME1 (AML), caspase 3/7 activation", "result": 326, "unit": "nM"}, {"measurement": "apoptosis-inducing activity", "setting": "[2]", "result": "blocked"}, {"measurement": "GI50", "setting": "[3]", "result": 543, "unit": "nM"}, {"measurement": "GI50", "setting": "[4]", "result": 18200, "unit": "nM"}, {"measurement": "GI50", "setting": "[5]", "result": "> 30000", "unit": "nM"}, {"measurement": "GI50", "setting": "[6]", "result": 13, "unit": "nM"}, {"measurement": "GI50", "setting": "[7]", "result": 530, "unit": "nM"}, {"measurement": "GI50", "setting": "[8]", "result": 226, "unit": "nM"}, {"measurement": "GI50", "setting": "[9]", "result": 292, "unit": "nM"}, {"measurement": "GI50", "setting": "[10]", "result": 15100, "unit": "nM"}, {"measurement": "tolerability, body weight", "setting": "[11]; all dose levels, 10–100 mg kg^−1 single i.v. dose", "result": "no significant body weight loss"}, {"measurement": "mice with tumor regression after second dose", "setting": "[11]; single dose 36 days after the first dose, 100 mg kg^−1 i.v., regrown tumors", "result": "4 out of 4"}, {"measurement": "tumor growth inhibition (TGI)", "setting": "[11]; single i.v. dose 10 mg kg^−1, ten days after treatment", "result": 52, "unit": "%"}, {"measurement": "tumor growth inhibition (TGI)", "setting": "[11]; single i.v. dose 30 mg kg^−1, ten days after treatment", "result": 93, "unit": "%"}, {"measurement": "mice with no detectable tumors", "setting": "[11]; [25]", "result": "6 out of 7"}, {"measurement": "tumor regression (TR)", "setting": "[11]; [25]", "result": 99, "unit": "%"}, {"measurement": "mice with complete TR", "setting": "[11]; single i.v. dose 100 mg kg^−1, ten days after treatment", "result": "7 out of 7"}, {"measurement": "apoptosis-inducing activity", "setting": "[12]", "result": "blocked"}, {"measurement": "GI50", "setting": "[13]", "result": 1620, "unit": "nM"}, {"measurement": "GI50", "setting": "[14]", "result": 133, "unit": "nM"}, {"measurement": "GI50", "setting": "[15]", "result": 24, "unit": "nM"}, {"measurement": "GI50", "setting": "[16]", "result": 65, "unit": "nM"}, {"measurement": "GI50", "setting": "[17]", "result": 346, "unit": "nM"}, {"measurement": "GI50", "setting": "[18]", "result": 12000, "unit": "nM"}, {"measurement": "GI50", "setting": "[19]", "result": 69, "unit": "nM"}, {"measurement": "GI50", "setting": "[20]", "result": "> 30000", "unit": "nM"}, {"measurement": "GI50", "setting": "[21]", "result": 585, "unit": "nM"}, {"measurement": "GI50", "setting": "[22]", "result": 139, "unit": "nM"}, {"measurement": "GI50", "setting": "[23]", "result": 714, "unit": "nM"}, {"measurement": "GI50", "setting": "[24]", "result": "> 30000", "unit": "nM"}]}
